# Source: patent US12599554B2, “Pharmaceutical formulations comprising tadalafil” (KYDES PHARMACEUTICALS, LLC, priority 2020, dated 2026)
# Experiments:
# [1] = Solubility of tadalafil in aqueous media and solvents; precipitation on adding water; format: physicochemical
# Description: Tadalafil is soluble in 2-pyrollidone, but the use of 2-pyrollidone as a solvent is limited by color formation, unpalatable taste, and incompatibility with plastic components of metered-dose delivery systems. […] Compatibility with the pumps was improved with water in an amount of at least 10% weight in volume.
# [2] = cited from earlier work
# [3] = cited from earlier work; remark: listed apart in the source
structure (smiles),measurement,setting,value
"CN1CC(=O)N2[C@H](c3ccc4c(c3)OCO4)c3[nH]c4ccccc4c3C[C@@H]2C1=O [Tadalafil, (2R,8R)-2-(1,3-benzodioxol-5-yl)-6-methyl-3,6,17-triazatetracyclo[8.7.0.0^3,8.0^11,16]heptadeca-1(10),11,13,15-tetraene-4,7-dione]",solubility in 2-pyrollidone,[1]; 2-pyrollidone,soluble
same,solubility in propylene carbonate,[1]; propylene carbonate,soluble
same,solubility in aqueous media,[2],insoluble
same,bioavailability in humans,[3],80%
